From ChEMBL document CHEMBL1201862, “PubChem BioAssay data set” (2004)
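A five-concentration, 48-hour dose response in 96-well plates underlies each endpoint, interpolated linearly between surrounding concentrations. Abbreviation: GI50, concentration required for 50% inhibition of growth.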 Active and inactive are the calls of the source. Rule as the data show it: active = GI50 up to about 1.1 µM and inactive = higher.

Tests used:
Experiment in all cases: inhibition of tumour cell growth, NCI panel, 48 h
786-0 = tested on: 786-0
A549 = tested on: A549
CCRF-CEM = tested on: CCRF-CEM
EKVX = tested on: EKVX
HL-60 = tested on: HL-60
IGROV-1 = tested on: IGROV-1
K562 = tested on: K562
MOLT-4 = tested on: MOLT-4
OVCAR-3 = tested on: OVCAR-3
SF-539 = tested on: SF-539
SK-MEL-28 = tested on: SK-MEL-28
SW-620 = tested on: SW-620
TK-10 = tested on: TK-10
UO-31 = tested on: UO-31
SK-OV-3 = tested on: SK-OV-3
OVCAR-5 = tested on: OVCAR-5

Measured: GI50

COC(=O)CC1NC(=O)C1C(C)(OC)OC (configuration not stated)
inactive: 786-0 > 100 µM | A549 > 100 µM | CCRF-CEM > 100 µM | EKVX > 100 µM | HL-60 > 100 µM | IGROV-1 > 100 µM | K562 > 100 µM | MOLT-4 > 100 µM | OVCAR-3 > 100 µM | SF-539 > 100 µM | SK-MEL-28 > 100 µM | SW-620 > 100 µM | TK-10 > 100 µM | UO-31 > 100 µM

CC(=O)OC1COC(Nc2ccc(C(C)=O)cc2)C(OC(C)=O)C1OC(C)=O (configuration not stated)
inactive: 786-0 > 100 µM | A549 > 100 µM | CCRF-CEM > 100 µM | EKVX > 100 µM | IGROV-1 > 100 µM | K562 > 100 µM | MOLT-4 > 100 µM | OVCAR-3 > 100 µM | SF-539 > 100 µM | SK-MEL-28 > 100 µM | SK-OV-3 > 100 µM | SW-620 > 100 µM | TK-10 > 100 µM | UO-31 > 100 µM

COc1ccc2c3c([nH]c2c1[N+](=O)[O-])C(C)N(Cc1ccc([N+](=O)[O-])cc1)CC3 (configuration not stated)
inactive: 786-0 > 100 µM | A549 > 100 µM | CCRF-CEM 6.76 µM | EKVX 37.6 µM | HL-60 3.22 µM | IGROV-1 39.8 µM | K562 3.22 µM | MOLT-4 2.99 µM | OVCAR-3 14 µM | OVCAR-5 31.6 µM | SF-539 > 100 µM | SK-MEL-28 11.9 µM | SW-620 15.1 µM | TK-10 29.6 µM | UO-31 13.2 µM

COC1OC2COC(c3ccccc3)OC2C(O)C1Br (configuration not stated)
inactive: 786-0 > 100 µM | A549 > 100 µM | CCRF-CEM > 100 µM | HL-60 > 100 µM | IGROV-1 > 100 µM | K562 > 100 µM | MOLT-4 > 100 µM | OVCAR-3 > 100 µM | OVCAR-5 > 100 µM | SF-539 > 100 µM | SK-MEL-28 > 100 µM | SW-620 > 100 µM | TK-10 > 100 µM

O=C1c2ccccc2C(=O)N1C/C=C/CO
inactive: 786-0 > 100 µM | A549 > 100 µM | CCRF-CEM > 100 µM | HL-60 > 100 µM | IGROV-1 > 100 µM | K562 > 100 µM | MOLT-4 > 100 µM | OVCAR-3 > 100 µM | SF-539 > 100 µM | SK-MEL-28 > 100 µM | SK-OV-3 > 100 µM | SW-620 > 100 µM | TK-10 > 100 µM | UO-31 > 100 µM

Cc1cc2c(=O)cc(-c3ccc(Cl)cc3Cl)oc2c(C(=O)O)c1C
inactive: 786-0 > 100 µM | A549 > 100 µM | CCRF-CEM > 100 µM | EKVX > 100 µM | IGROV-1 > 100 µM | K562 > 100 µM | MOLT-4 > 100 µM | OVCAR-3 > 100 µM | OVCAR-5 > 100 µM | SF-539 > 100 µM | SK-MEL-28 > 100 µM | SK-OV-3 > 100 µM | SW-620 > 100 µM | TK-10 > 100 µM | UO-31 > 100 µM

CC(=O)Nc1ccc(C(=O)N2N=C(C)/C(=C/c3cccc([N+](=O)[O-])c3)C2=O)cc1
inactive: 786-0 > 100 µM | A549 > 100 µM | CCRF-CEM > 100 µM | EKVX > 100 µM | HL-60 > 100 µM | K562 > 100 µM | MOLT-4 > 100 µM | OVCAR-3 > 100 µM | OVCAR-5 > 100 µM | SF-539 > 100 µM | SK-MEL-28 > 100 µM | SW-620 > 100 µM | TK-10 > 100 µM | UO-31 > 100 µM

COc1cc2nc(Sc3c([N+](=O)[O-])ncn3C)[nH]c2cc1OC
inactive: 786-0 71 µM | A549 34.8 µM | EKVX 21.2 µM | IGROV-1 14.2 µM | MOLT-4 12.5 µM | OVCAR-3 46.8 µM | OVCAR-5 98.6 µM | SF-539 18.6 µM | SK-MEL-28 20.5 µM | SK-OV-3 79.4 µM | SW-620 26 µM | TK-10 26.9 µM | UO-31 46 µM
